Measured values from PMC6095594, “Pre-clinical evaluation of quinoxaline-derived chalcones in tuberculosis” (PLoS ONE, 2018).
≈ marks a conversion by molar mass, not a printed value.

What was measured:
[1] = system: M. tuberculosis pNIP::control; experiment: microbe, parasite or virus in culture; assay type: cell-based; conditions: Mycobacterium tuberculosis; pNIP::control (empty vector)
[2] = system: M. tuberculosis pNIP::KatG(WT); experiment: microbe, parasite or virus in culture; assay type: cell-based; conditions: Mycobacterium tuberculosis
[3] = system: mycolic acids synthesis in M. tuberculosis cells; assay type: cell-based; conditions: N9 at 10 and 25 μg/mL, 18 hours
S. typhimurium TA100 = experiment: Salmonella/microsome mutagenicity test
Procedure: (§1) Salmonella typhimurium strains TA98, TA97a, TA100, TA1535, and TA102 were provided by MOLTOX® (Molecular Toxicology Inc. USA). Mutagenicity was assayed according to the pre-incubation procedure following the recommendation described in Mortelmans and Zieger (2000). […] Briefly, 100 μL of test bacterial cultures (1–2 x 10^9 cells/mL) were incubated at 37 °C with different concentrations of N9 (10–400 μg/plate) in the presence or absence of S9 mix, for 20 min, without shaking. […] Plates were incubated in the dark at 37 °C for 48 h before counting the revertant colonies. Assays were repeated twice and the plating for each concentration was conducted in triplicate. Data were evaluated by one-way analysis of variance (ANOVA), followed by Dunnett's post-test, using GraphPad Prism 5.0 (GraphPad, San Diego, CA, USA).

S. typhimurium TA1535 = experiment: Salmonella/microsome mutagenicity test
Procedure: as §1

S. typhimurium TA102 = experiment: Salmonella/microsome mutagenicity test
Procedure: (§2) Salmonella typhimurium strains TA98, TA97a, TA100, TA1535, and TA102 were provided by MOLTOX® (Molecular Toxicology Inc. USA). Mutagenicity was assayed according to the pre-incubation procedure following the recommendation described in Mortelmans and Zieger (2000). […] Briefly, 100 μL of test bacterial cultures (1–2 x 10^9 cells/mL) were incubated at 37 °C with different concentrations of N9 (10–400 μg/plate) in the presence or absence of S9 mix, for 20 min, without shaking. […] 2-aminoanthracene (2-AA, 5 μg/plate) was used as positive control for all strains in the presence of metabolic activation (with S9 mix). […] Plates were incubated in the dark at 37 °C for 48 h before counting the revertant colonies. Assays were repeated twice and the plating for each concentration was conducted in triplicate. Data were evaluated by one-way analysis of variance (ANOVA), followed by Dunnett's post-test, using GraphPad Prism 5.0 (GraphPad, San Diego, CA, USA).

S. typhimurium TA98 = experiment: Salmonella/microsome mutagenicity test
Procedure: as §2

CYP2C9 = CYP2C9 (Homo sapiens, UniProt P11712); conditions: human liver microsomes
CYP2C19 = CYP2C19 (Homo sapiens, UniProt P33261); conditions: human liver microsomes, CYP2C19, N9 0.01–100 μmol L^-1
CYP2D6 = CYP2D6 (Homo sapiens, UniProt P10635); conditions: human liver microsomes, CYP2D6, N9 0.01–100 μmol L^-1
CYP2E1 = CYP2E1 (Homo sapiens, UniProt P05181); conditions: human liver microsomes, CYP2E1, N9 0.01–100 μmol L^-1
CYP3A4/5 = experiment: in vitro; conditions: human, microsomes, pH 7.4
CYP1A2 = CYP1A2 (Homo sapiens, UniProt P05177); experiment: biochemical
Chain of CYP1A2 (P05177 whole entry): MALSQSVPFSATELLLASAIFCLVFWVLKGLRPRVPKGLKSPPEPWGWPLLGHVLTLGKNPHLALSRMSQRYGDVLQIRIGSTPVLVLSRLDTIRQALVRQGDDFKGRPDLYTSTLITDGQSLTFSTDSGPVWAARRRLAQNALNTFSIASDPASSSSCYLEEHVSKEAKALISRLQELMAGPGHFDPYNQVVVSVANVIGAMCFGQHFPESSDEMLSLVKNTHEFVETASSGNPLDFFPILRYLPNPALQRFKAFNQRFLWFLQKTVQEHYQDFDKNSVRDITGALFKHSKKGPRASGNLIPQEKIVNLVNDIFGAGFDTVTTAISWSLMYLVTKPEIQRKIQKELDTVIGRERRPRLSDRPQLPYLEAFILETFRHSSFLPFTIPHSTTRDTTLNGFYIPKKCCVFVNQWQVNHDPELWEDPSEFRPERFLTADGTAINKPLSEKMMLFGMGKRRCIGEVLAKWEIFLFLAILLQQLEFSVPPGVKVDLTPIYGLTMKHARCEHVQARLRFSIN

Chain of CYP2E1 (P05181 whole entry): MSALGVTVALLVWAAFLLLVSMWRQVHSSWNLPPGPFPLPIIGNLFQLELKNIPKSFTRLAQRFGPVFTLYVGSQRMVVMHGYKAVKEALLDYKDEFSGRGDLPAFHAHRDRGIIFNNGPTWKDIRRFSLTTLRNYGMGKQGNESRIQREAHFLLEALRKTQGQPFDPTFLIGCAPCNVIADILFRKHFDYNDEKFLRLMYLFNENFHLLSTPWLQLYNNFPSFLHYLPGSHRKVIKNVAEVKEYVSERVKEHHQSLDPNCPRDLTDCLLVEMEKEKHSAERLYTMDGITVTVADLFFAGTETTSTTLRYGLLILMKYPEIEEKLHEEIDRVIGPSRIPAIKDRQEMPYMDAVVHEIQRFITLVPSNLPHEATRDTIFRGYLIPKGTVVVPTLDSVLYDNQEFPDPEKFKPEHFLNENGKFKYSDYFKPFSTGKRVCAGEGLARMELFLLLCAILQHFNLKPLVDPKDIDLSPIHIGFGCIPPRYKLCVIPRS
Chain of CYP2C9 (P11712 whole entry): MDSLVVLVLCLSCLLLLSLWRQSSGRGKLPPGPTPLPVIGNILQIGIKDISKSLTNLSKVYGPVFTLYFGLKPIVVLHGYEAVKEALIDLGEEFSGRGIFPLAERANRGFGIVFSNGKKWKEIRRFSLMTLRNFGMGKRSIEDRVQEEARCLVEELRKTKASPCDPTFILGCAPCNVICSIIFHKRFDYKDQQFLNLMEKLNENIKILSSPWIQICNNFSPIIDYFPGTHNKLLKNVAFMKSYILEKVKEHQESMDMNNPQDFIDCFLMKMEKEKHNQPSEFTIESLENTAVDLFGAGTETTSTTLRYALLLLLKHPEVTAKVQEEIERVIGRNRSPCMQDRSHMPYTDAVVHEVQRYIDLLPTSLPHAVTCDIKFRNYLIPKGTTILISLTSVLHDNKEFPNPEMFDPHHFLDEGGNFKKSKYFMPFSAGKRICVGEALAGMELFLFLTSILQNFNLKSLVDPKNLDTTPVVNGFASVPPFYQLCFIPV
Chain of CYP2D6 (P10635 whole entry): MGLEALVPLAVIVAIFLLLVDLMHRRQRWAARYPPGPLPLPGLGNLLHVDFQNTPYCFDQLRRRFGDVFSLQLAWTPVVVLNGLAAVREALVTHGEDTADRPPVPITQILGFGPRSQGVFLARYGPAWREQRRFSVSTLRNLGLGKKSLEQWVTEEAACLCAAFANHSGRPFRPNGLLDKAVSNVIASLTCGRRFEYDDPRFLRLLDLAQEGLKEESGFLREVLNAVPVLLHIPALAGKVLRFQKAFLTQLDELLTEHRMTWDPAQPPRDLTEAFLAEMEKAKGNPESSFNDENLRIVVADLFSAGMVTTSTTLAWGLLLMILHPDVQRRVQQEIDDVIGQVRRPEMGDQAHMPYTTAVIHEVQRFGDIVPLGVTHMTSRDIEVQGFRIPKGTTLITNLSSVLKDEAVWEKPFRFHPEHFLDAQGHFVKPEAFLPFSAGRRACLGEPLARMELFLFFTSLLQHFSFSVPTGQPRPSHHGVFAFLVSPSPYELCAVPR
Chain of CYP2C19 (P33261 whole entry): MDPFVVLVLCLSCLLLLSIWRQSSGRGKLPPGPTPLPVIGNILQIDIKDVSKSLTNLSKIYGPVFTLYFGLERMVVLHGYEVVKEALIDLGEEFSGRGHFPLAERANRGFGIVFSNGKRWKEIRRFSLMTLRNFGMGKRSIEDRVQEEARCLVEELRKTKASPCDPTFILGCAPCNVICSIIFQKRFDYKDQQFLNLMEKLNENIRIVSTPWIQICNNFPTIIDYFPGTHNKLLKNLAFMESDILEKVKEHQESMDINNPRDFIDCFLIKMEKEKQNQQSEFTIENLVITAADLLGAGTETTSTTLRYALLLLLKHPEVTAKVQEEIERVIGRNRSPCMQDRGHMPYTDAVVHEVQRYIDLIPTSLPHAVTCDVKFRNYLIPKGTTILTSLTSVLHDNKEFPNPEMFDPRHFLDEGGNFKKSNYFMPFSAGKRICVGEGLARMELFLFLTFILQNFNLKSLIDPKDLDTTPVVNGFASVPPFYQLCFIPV

COc1ccc(OC)c(C(=O)/C=C/c2ccc3nccnc3c2)c1 [N9]
MIC [1]: 3.13 µg/mL (≈ 9.77 µM) | MIC [2]: 3.13 µg/mL (≈ 9.77 µM) | Effect on synthesis of mycolic acids and non-hydroxylated fatty acids [3]: did not inhibit | MI: mutagenic index (S. typhimurium TA100; TA100, +S9, 10 μg/plate): 0.94 | Number of revertants/plate (S. typhimurium TA100; TA100, +S9, 10 μg/plate): 108.7±15.2 Rev/plate | MI: mutagenic index (S. typhimurium TA100; TA100, +S9, 50 μg/plate): 1.13 | Number of revertants/plate (S. typhimurium TA100; TA100, +S9, 50 μg/plate): 130.7±10.7 Rev/plate | MI: mutagenic index (S. typhimurium TA100; TA100, +S9, 100 μg/plate): 0.97 | Number of revertants/plate (S. typhimurium TA100; TA100, +S9, 100 μg/plate): 112.7±15.5 Rev/plate | MI: mutagenic index (S. typhimurium TA100; TA100, +S9, 200 μg/plate): 0.95 | Number of revertants/plate (S. typhimurium TA100; TA100, +S9, 200 μg/plate): 110.0±11.8 Rev/plate | MI: mutagenic index (S. typhimurium TA100; TA100, +S9, 400 μg/plate): 0.97 | Number of revertants/plate (S. typhimurium TA100; TA100, +S9, 400 μg/plate): 112.0±13.9 Rev/plate | MI: mutagenic index (S. typhimurium TA100; TA100, -S9, 10 μg/plate): 1.08 | Number of revertants/plate (S. typhimurium TA100; TA100, -S9, 10 μg/plate): 125.0±10.5 Rev/plate | MI: mutagenic index (S. typhimurium TA100; TA100, -S9, 50 μg/plate): 0.88 | Number of revertants/plate (S. typhimurium TA100; TA100, -S9, 50 μg/plate): 101.0±12.5 Rev/plate | MI: mutagenic index (S. typhimurium TA100; TA100, -S9, 100 μg/plate): 0.84 | Number of revertants/plate (S. typhimurium TA100; TA100, -S9, 100 μg/plate): 97.0±20.1 Rev/plate | MI: mutagenic index (S. typhimurium TA100; TA100, -S9, 200 μg/plate): 0.95 | Number of revertants/plate (S. typhimurium TA100; TA100, -S9, 200 μg/plate): 109.7±7.8 Rev/plate | MI: mutagenic index (S. typhimurium TA100; TA100, -S9, 400 μg/plate): 0.84 | Number of revertants/plate (S. typhimurium TA100; TA100, -S9, 400 μg/plate): 96.7±9.3 Rev/plate | MI: mutagenic index (S. typhimurium TA1535; TA1535, +S9, 10 μg/plate): 1.16 | Number of revertants/plate (S. typhimurium TA1535; TA1535, +S9, 10 μg/plate): 9.7±1.2 Rev/plate | MI: mutagenic index (S. typhimurium TA1535; TA1535, +S9, 50 μg/plate): 1.24 | Number of revertants/plate (S. typhimurium TA1535; TA1535, +S9, 50 μg/plate): 10.3±2.5 Rev/plate | MI: mutagenic index (S. typhimurium TA1535; TA1535, +S9, 100 μg/plate): 1.00 | Number of revertants/plate (S. typhimurium TA1535; TA1535, +S9, 100 μg/plate): 8.3±4.9 Rev/plate | MI: mutagenic index (S. typhimurium TA1535; TA1535, +S9, 200 μg/plate): 1.04 | Number of revertants/plate (S. typhimurium TA1535; TA1535, +S9, 200 μg/plate): 8.7±1.2 Rev/plate | MI: mutagenic index (S. typhimurium TA1535; TA1535, +S9, 400 μg/plate): 0.68 | Number of revertants/plate (S. typhimurium TA1535; TA1535, +S9, 400 μg/plate): 5.7±1.2 Rev/plate | MI: mutagenic index (S. typhimurium TA1535; TA1535, -S9, 10 μg/plate): 1.03 | Number of revertants/plate (S. typhimurium TA1535; TA1535, -S9, 10 μg/plate): 11.7±0.6 Rev/plate | MI: mutagenic index (S. typhimurium TA1535; TA1535, -S9, 50 μg/plate): 0.82 | Number of revertants/plate (S. typhimurium TA1535; TA1535, -S9, 50 μg/plate): 9.3±0.6 Rev/plate | MI: mutagenic index (S. typhimurium TA1535; TA1535, -S9, 100 μg/plate): 1.03 | Number of revertants/plate (S. typhimurium TA1535; TA1535, -S9, 100 μg/plate): 11.7±5.9 Rev/plate | MI: mutagenic index (S. typhimurium TA1535; TA1535, -S9, 200 μg/plate): 1.18 | Number of revertants/plate (S. typhimurium TA1535; TA1535, -S9, 200 μg/plate): 13.3±4.0 Rev/plate | MI: mutagenic index (S. typhimurium TA1535; TA1535, -S9, 400 μg/plate): 1.24 | Number of revertants/plate (S. typhimurium TA1535; TA1535, -S9, 400 μg/plate): 14.0±3.6 Rev/plate | MI: mutagenic index (S. typhimurium TA102; TA102, +S9, 10 μg/plate): 1.01 | Number of revertants/plate (S. typhimurium TA102; TA102, +S9, 10 μg/plate): 376.3±29.0 Rev/plate | MI: mutagenic index (S. typhimurium TA102; TA102, +S9, 50 μg/plate): 0.96 | Number of revertants/plate (S. typhimurium TA102; TA102, +S9, 50 μg/plate): 358.0±49.1 Rev/plate | MI: mutagenic index (S. typhimurium TA102; TA102, +S9, 100 μg/plate): 0.99 | Number of revertants/plate (S. typhimurium TA102; TA102, +S9, 100 μg/plate): 368.7±12.7 Rev/plate | MI: mutagenic index (S. typhimurium TA102; TA102, +S9, 200 μg/plate): 1.02 | Number of revertants/plate (S. typhimurium TA102; TA102, +S9, 200 μg/plate): 382.0±58.2 Rev/plate | MI: mutagenic index (S. typhimurium TA102; TA102, +S9, 400 μg/plate): 0.99 | Number of revertants/plate (S. typhimurium TA102; TA102, +S9, 400 μg/plate): 371.0±23.6 Rev/plate | MI: mutagenic index (S. typhimurium TA102; TA102, -S9, 10 μg/plate): 0.75 | Number of revertants/plate (S. typhimurium TA102; TA102, -S9, 10 μg/plate): 254.3±47.1 Rev/plate | MI: mutagenic index (S. typhimurium TA102; TA102, -S9, 50 μg/plate): 0.89 | Number of revertants/plate (S. typhimurium TA102; TA102, -S9, 50 μg/plate): 299.3±50.6 Rev/plate | MI: mutagenic index (S. typhimurium TA102; TA102, -S9, 100 μg/plate): 1.01 | Number of revertants/plate (S. typhimurium TA102; TA102, -S9, 100 μg/plate): 341.3±16.8 Rev/plate | MI: mutagenic index (S. typhimurium TA102; TA102, -S9, 200 μg/plate): 0.96 | Number of revertants/plate (S. typhimurium TA102; TA102, -S9, 200 μg/plate): 324.3±4.2 Rev/plate | MI: mutagenic index (S. typhimurium TA102; TA102, -S9, 400 μg/plate): 0.95 | Number of revertants/plate (S. typhimurium TA102; TA102, -S9, 400 μg/plate): 321.0±27.4 Rev/plate | MI: mutagenic index (S. typhimurium TA98; TA98, +S9, 10 μg/plate): 1.09 | Number of revertants/plate (S. typhimurium TA98; TA98, +S9, 10 μg/plate): 43.7±4.7 Rev/plate | MI: mutagenic index (S. typhimurium TA98; TA98, +S9, 50 μg/plate): 0.80 | Number of revertants/plate (S. typhimurium TA98; TA98, +S9, 50 μg/plate): 32.0±7.8 Rev/plate | MI: mutagenic index (S. typhimurium TA98; TA98, +S9, 100 μg/plate): 0.94 | Number of revertants/plate (S. typhimurium TA98; TA98, +S9, 100 μg/plate): 37.7±5.7 Rev/plate | MI: mutagenic index (S. typhimurium TA98; TA98, +S9, 200 μg/plate): 1.05 | Number of revertants/plate (S. typhimurium TA98; TA98, +S9, 200 μg/plate): 42.0±5.6 Rev/plate | MI: mutagenic index (S. typhimurium TA98; TA98, +S9, 400 μg/plate): 1.06 | Number of revertants/plate (S. typhimurium TA98; TA98, +S9, 400 μg/plate): 42.3±6.7 Rev/plate | MI: mutagenic index (S. typhimurium TA98; TA98, -S9, 10 μg/plate): 0.83 | Number of revertants/plate (S. typhimurium TA98; TA98, -S9, 10 μg/plate): 28.3±7.6 Rev/plate | MI: mutagenic index (S. typhimurium TA98; TA98, -S9, 50 μg/plate): 0.73 | Number of revertants/plate (S. typhimurium TA98; TA98, -S9, 50 μg/plate): 25.0±6.1 Rev/plate | MI: mutagenic index (S. typhimurium TA98; TA98, -S9, 100 μg/plate): 0.81 | Number of revertants/plate (S. typhimurium TA98; TA98, -S9, 100 μg/plate): 27.7±4.0 Rev/plate | MI: mutagenic index (S. typhimurium TA98; TA98, -S9, 200 μg/plate): 0.89 | Number of revertants/plate (S. typhimurium TA98; TA98, -S9, 200 μg/plate): 30.5±2.1 Rev/plate | MI: mutagenic index (S. typhimurium TA98; TA98, -S9, 400 μg/plate): 1.24 | Number of revertants/plate (S. typhimurium TA98; TA98, -S9, 400 μg/plate): 42.5±15.8 Rev/plate | Inhibitory potential (CYP2C9): weak inhibitory potential | percentage of remaining enzyme activity (CYP2C19): approximately 100% | percentage of remaining enzyme activity (CYP2D6): approximately 100% | percentage of remaining enzyme activity (CYP2E1): approximately 100% | IC50 (CYP3A4/5): > 100000 nM | IC50 (CYP1A2): 2000 nM
